Experimental data reported in US10568879B2 (GALAPAGOS NV, priority 2015, dated 2020).

Experiments:
[1] = biological target: T1, GPR84 (Homo sapiens, UniProt Q9NQS5); test: GPR84 [35S]GTPγS binding assay; assay type: biochemical; details: 3,3′-diindolylmethane at EC80; membranes from stable cell line over expressing GPR84
T1 construct: expressed in transfected cells
In short: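 Antagonist-mode [35S]GTPγS binding on membranes from a GPR84-overexpressing stable line (GDP-preincubated), stimulated with 3,3′-diindolylmethane at EC80. Buffer 20 mM Tris pH 7.5, 5 mM MgCl2, 250 mM NaCl, saponin; 0.1 nM [35S]GTPγS, 90 min at room temperature, SPA bead read-out.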

[2] = tested on: human neutrophils; test: Human neutrophil migration assay; assay type: cell-based; details: Homo sapiens, Neutrophil; embelin at EC80 as chemotactic agent; 1 h at 37° C.; read-out: Human neutrophil migration IC50
Experimental: The activity of GPR84 agonists and antagonists can therefore be assayed in a human neutrophil migration assay. The human neutrophil migration assay makes use of freshly isolated human neutrophils from buffy coats that are subsequently used in a functional chemotaxis assay setup. […] After 1 h of incubation at 37° C. and 5% CO2, the number of migrated neutrophils in the lower compartment can be quantified by measuring the ATP content using ATPlite™ Luminescence Assay System. A human buffy coat suspension is diluted with an equal volume of ice cold DPBS. 20 mL of the diluted buffy coat suspension is gently mixed with 4 mL of ACD buffer (140 mM citric acid, 200 mM sodium citrate and 220 mM dextrose). Then, 12 mL of a 6% dextran/0.9% NaCl solution (15 g dextran T2000 and 2.25 g NaCl dissolved in 250 mL H2O) is added to the mixture and the samples are inverted gently up to 20 times. The total volume is transferred to a new recipient and incubated at room temperature to allow sedimentation of red blood cells. The yellowish upper fraction is then transferred to a clean centrifugation tube and centrifuged for 12 min at 1300 rpm and 4° C. After centrifugation, the supernatant is discarded and the remaining cell pellet is rapidly resuspended in 12 mL of ice-cold H2O to perform a red blood cell lysis by osmotic burst. After 20 seconds, 4 mL of ice-cold 0.6 M KCl is added to restore salt concentration. Samples are mixed carefully and centrifuged for 6 min at 1300 rpm and 4° C. The supernatant is discarded and the red blood cell lysis procedure is repeated one more time. […] A neutrophil cell suspension of 8.9×10^6 cells per mL is prepared in chemotaxis buffer and 180 μL per well is plated in a 96-well V-bottom plate. 20 μL of test compound solution in chemotaxis buffer is added to the 180 μL cell suspension. The mixture is incubated at room temperature for 30 min with intermediate gentle resuspension of the cells after 15 min. […] After 1 h at 37° C., 5% CO2 in a humidified incubator, the upper plate of the Transwell® system is gently removed. […] After incubation, 270 μL of cell lysate is then transferred onto a white 96-well plate for quantification by a luminescence plate reader. The relative luminescent signal measured is considered linearly related to the number of cells having migrated from the upper compartment into the receiver well.

T1 sequence (Q9NQS5 whole entry): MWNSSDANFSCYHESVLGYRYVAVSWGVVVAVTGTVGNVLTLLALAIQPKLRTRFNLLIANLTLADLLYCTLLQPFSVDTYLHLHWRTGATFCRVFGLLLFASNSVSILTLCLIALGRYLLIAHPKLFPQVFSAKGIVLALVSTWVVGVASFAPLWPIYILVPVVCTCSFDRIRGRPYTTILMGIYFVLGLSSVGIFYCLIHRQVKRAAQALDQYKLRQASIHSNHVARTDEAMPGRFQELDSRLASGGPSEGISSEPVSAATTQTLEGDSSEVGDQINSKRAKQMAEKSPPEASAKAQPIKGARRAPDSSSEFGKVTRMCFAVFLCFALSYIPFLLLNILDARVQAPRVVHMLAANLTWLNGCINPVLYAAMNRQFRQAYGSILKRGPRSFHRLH

SMILES | IC50 [1] [nM] | IC50 [2] [nM]
Cc1c2n(c(OC[C@@H]3COCCO3)cc1=O)CCc1cc(N3CCC(F)(F)CC3)ccc1-2 [Compound 65, 9-(4,4-difluoro-1-piperidyl)-4-[[(2S)-1,4-dioxan-2-yl]methoxy]-1-methyl-6,7-dihydrobenzo[a]quinolizin-2-one] | 0.01 to 100 | 0.01 to 100
Cc1noc(COc2ccc3c(c2)CCn2c(OCC4CCCCO4)cc(=O)c(C)c2-3)n1 (stereo not drawn) [Compound 44, 1-methyl-9-[(3-methyl-1,2,4-oxadiazol-5-yl)methoxy]-4-(tetrahydropyran-2-ylmethoxy)-6,7-dihydrobenzo[a]quinolizin-2-one] | 0.01 to 100 | 0.01 to 100
COc1ccc2c(c1OC)CCn1c(NCC3CCCO3)cc(=O)cc1-2 (stereo not drawn) [Compound 20, 8,9-dimethoxy-4-(tetrahydrofuran-2-ylmethylamino)-6,7-dihydrobenzo[a]quinolizin-2-one] | > 1000 | > 1000
Cc1c2n(c(OC[C@@H]3COCCO3)cc1=O)CCc1cc(C3=CCN(C(=O)OCC(F)(F)F)CC3)ccc1-2 [Compound 79, 2,2,2-trifluoroethyl 4-[4-[[(2S)-1,4-dioxan-2-yl]methoxy]-1-methyl-2-oxo-6,7-dihydrobenzo[a]quinolizin-9-yl]-3,6-dihydro-2H-pyridine-1-carboxylate] | 0.01 to 100 | 0.01 to 100
Cc1c2n(c(OC[C@@H]3COCCO3)cc1=O)CCc1cc(C3CCN(C(=O)OC(C)C)CC3)ccc1-2 [Compound 82, isopropyl 4-[4-[[(2S)-1,4-dioxan-2-yl]methoxy]-1-methyl-2-oxo-6,7-dihydrobenzo[a]quinolizin-9-yl]piperidine-1-carboxylate] | 0.01 to 100 | 0.01 to 100
COC(=O)N1CCC(c2ccc3c(c2)CCn2c(OC[C@@H]4COCCO4)cc(=O)c(C)c2-3)CC1 [Compound 80, methyl 4-[4-[[(2S)-1,4-dioxan-2-yl]methoxy]-1-methyl-2-oxo-6,7-dihydrobenzo[a]quinolizin-9-yl]piperidine-1-carboxylate] | 0.01 to 100 | 0.01 to 100
Cc1c2n(c(OC[C@@H]3COCCO3)cc1=O)CCc1cc(N3CCC3)ccc1-2 [Compound 93, 9-(azetidin-1-yl)-4-[[(2S)-1,4-dioxan-2-yl]methoxy]-1-methyl-6,7-dihydrobenzo[a]quinolizin-2-one] | 0.01 to 100 | 100 to 500
Cc1c2n(c(NCC3CCCO3)cc1=O)CCc1cc(OCC3CC3(F)F)ccc1-2 (stereo not drawn) [Compound 7, 9-(2,2-Difluoro-cyclopropylmethoxy)-1-methyl-4-[(tetrahydro-furan-2-ylmethyl)-amino]-6,7-dihydro-pyrido[2,1-a]isoquinolin-2-one] | 0.01 to 100 | 100 to 500
COc1ccc2c(c1OC)CCn1c(NCC3COCCO3)cc(=O)cc1-2 (stereo not drawn) [Compound 19, 4-(1,4-dioxan-2-ylmethylamino)-8,9-dimethoxy-6,7-dihydrobenzo[a]quinolizin-2-one] | 500 to 1000 | > 1000
Cc1c2n(c(OC[C@@H]3COCCO3)cc1=O)CCc1cc(N3CC(F)(F)C3)ccc1-2 [Compound 86, 9-(3,3-difluoroazetidin-1-yl)-4-[[(2S)-1,4-dioxan-2-yl]methoxy]-1-methyl-6,7-dihydrobenzo[a]quinolizin-2-one] | 0.01 to 100 | 0.01 to 100
Cc1c2n(c(OC[C@@H]3COCCO3)cc1=O)CCc1cc(OCc3cccc(OC(F)(F)F)c3)ccc1-2 [Compound 32, 4-[[(2S)-1,4-dioxan-2-yl]methoxy]-1-methyl-9-[[3-(trifluoromethoxy)phenyl]methoxy]-6,7-dihydrobenzo[a]quinolizin-2-one] | 0.01 to 100 | 0.01 to 100
Cc1c2n(c(OC[C@@H]3COCCO3)cc1=O)CCc1cc(OCc3cnn(C)c3)ccc1-2 [Compound 38, 4-[[(2S)-1,4-dioxan-2-yl]methoxy]-1-methyl-9-[(1-methylpyrazol-4-yl)methoxy]-6,7-dihydrobenzo[a]quinolizin-2-one] | 0.01 to 100 | 100 to 500
